# Assay results from patent publication US8188078B2 (Sanofi-Aventis, priority 2007, dated 2012).
# Columns and labels:
# MET = target: T1, MET (Homo sapiens, UniProt P08581); assay: Test C: inhibition of the autophosphorylation of MET, ELISA technique (pppY1230, 1234, 1235), MKN45 cells; type: cell-based
# T1 construct: endogenous in cells; host or cells: MKN45 cells
# Experimental: C) Inhibition of the Autophosphorylation of MET; ELISA Technique (pppY1230, 1234, 1235)
# a) Cellular lysates: Sow the MKN45 cells in a 96-well plate (Cell coat BD polylysine) at 20 000 cells/well under 200 μl of medium RPMI+10% FCS+1% L-glutamine. Leave to adhere to the incubator for 24 h.
# The cells are treated on the day after sowing with the products at 6 concentrations in duplicate for 1 h. At least 3 control wells are treated with the same amount of final DMSO.
# Dilution of the products: Stock at 10 mM in pure DMSO—range from 10 mM to 30 μM with steps of 3 of pure DMSO—Intermediate dilutions to 1/50 in culture medium then taking of 10 μl added directly to the cells (200 μl): final range from 10000 to 30 nM.
# At the end of incubation, carefully remove the supernatant and rinse with 200 μl of PBS. Then put 100 μl of lysis buffer directly in the wells on ice and incubate at 4° C. for 30 minutes. Lysis buffer: 10 mM Tris, HCl pH7.4, 100 mM NaCl, 1 mM EDTA, 1 mM EGTA, 1% Triton X-100, 10% glycerol, 0.1% SDS, 0.5% deoxycholate, 20 mM NaF, 2 mM Na3VO4, 1 mM PMSF and antiprotease cocktail.
# The 100 μl of lysates are transferred to a V-bottomed polypropylene plate and ELISA is performed next or the plate is frozen at −80° C.
# b) ELISA PhosphoMET BioSource Kit KH00281
# In each well of the plate from the kit, add 70 μl of dilution buffer from the kit+30 μL of cell lysate or 30 μl of lysis buffer for the blank. Incubate for 2 h at room temperature, stirring gently.
# Rinse the wells 4 times with 400 μl of washing buffer from the kit. Incubate with 100 μl of anti-phospho MET antibodies for 1 h at room temperature.
# Rinse the wells 4 times with 400 μl of washing buffer from the kit. Incubate with 100 μl of anti-rabbit HRP antibodies for 30 minutes at room temperature (except for the wells with chromogen only).
# Rinse the wells 4 times with 400 μl of washing buffer from the kit. Add 100 μL of chromogen and incubate for 30 minutes in the dark at room temperature.
# Stop the reaction with 100 μl of stop solution. Read at once at […] 0.1 second in the Wallac Victor plate reader.
# The products of formula (I) as defined above show cellular activity in this test between 10 nM and 10 μM.
# RON = RON (Homo sapiens, UniProt Q04912); assay: Test B: HTRF RON test in 96-well format; type: biochemical
# Sequence of RON (Q04912 25-1400): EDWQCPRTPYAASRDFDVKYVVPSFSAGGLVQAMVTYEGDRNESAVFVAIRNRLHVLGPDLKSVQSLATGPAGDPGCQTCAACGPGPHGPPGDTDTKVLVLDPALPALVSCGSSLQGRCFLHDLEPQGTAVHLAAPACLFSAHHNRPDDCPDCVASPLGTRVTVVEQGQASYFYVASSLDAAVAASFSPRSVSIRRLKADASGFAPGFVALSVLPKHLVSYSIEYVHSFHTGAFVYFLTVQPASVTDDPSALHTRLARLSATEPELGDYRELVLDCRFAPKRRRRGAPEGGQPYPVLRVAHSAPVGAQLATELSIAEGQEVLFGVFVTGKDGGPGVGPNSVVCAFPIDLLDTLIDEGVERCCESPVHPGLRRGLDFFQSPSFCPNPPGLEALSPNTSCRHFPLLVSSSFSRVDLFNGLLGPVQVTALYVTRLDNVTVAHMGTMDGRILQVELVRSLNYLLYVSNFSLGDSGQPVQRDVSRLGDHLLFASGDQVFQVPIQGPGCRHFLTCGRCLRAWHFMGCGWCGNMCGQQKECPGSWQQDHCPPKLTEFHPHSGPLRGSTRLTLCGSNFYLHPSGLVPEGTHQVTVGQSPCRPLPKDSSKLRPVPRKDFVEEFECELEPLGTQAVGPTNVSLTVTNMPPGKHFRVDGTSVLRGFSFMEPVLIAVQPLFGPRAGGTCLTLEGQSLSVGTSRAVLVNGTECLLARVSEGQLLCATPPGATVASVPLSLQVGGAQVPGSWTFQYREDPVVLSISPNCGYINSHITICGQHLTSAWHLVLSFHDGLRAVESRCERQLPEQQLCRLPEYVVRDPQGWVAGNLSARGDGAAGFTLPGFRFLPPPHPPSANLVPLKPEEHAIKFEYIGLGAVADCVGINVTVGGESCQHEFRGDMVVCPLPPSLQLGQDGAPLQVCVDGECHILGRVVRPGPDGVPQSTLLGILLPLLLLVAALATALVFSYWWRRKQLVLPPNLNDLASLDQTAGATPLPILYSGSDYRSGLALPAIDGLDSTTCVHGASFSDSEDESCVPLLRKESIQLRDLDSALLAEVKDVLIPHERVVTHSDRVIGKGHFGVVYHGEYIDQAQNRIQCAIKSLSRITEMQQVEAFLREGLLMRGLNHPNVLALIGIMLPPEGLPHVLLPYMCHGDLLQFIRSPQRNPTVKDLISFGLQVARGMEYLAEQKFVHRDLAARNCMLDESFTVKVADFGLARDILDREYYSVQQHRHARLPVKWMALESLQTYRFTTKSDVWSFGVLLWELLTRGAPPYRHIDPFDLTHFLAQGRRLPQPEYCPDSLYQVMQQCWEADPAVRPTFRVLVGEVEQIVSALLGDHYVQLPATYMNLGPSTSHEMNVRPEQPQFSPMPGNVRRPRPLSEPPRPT
# Experimental: B) HTRF RON Test in 96-Well Format
# The inhibitory potency (IC50) of molecules on the enzymatic activity of kinase phosphorylation RON is determined by the HTRF technique. The activity of the kinase is evaluated by measuring the phosphorylation of the substrate polyGAT by the enzyme, in the presence of ATP.
# Final RON 5 nM is incubated in the presence of the molecule to be tested (for a final concentration range from 0.17 nM to 10 μM, final DMSO 3%) in buffer MOPS 10 mM pH 7, DTT 1 mM, Tween 20 0.01%. This pre-incubation is performed in 96 half-well black plates in a volume of 35 μl for 30 minutes at room temperature.
# The reaction is initiated by adding 15 μl of a mixture of substrates constituted of biotinylated poly-(GAT) 1 μg/ml final and ATP 10 μM final in the presence of MgCl2 5 mM final for a final volume of 50 μl.
# After incubation for 30 min at room temperature, the reaction is stopped with 30 μl of a mixture of Hepes 100 mM final pH 7, potassium fluoride 400 mM final, BSA 0.1% and EDTA 133 mM in the presence of 80 ng per well of antibodies Streptavidin ITS-XL665 Cis-Bio Int. and 18 ng per well of anti-phosphotyrosine PT66 labelled with europium cryptate.
# After incubation for 2 hours at room temperature, reading is carried out at 2 wavelengths 620 nm and 665 nm in a Genios TECAN reader for the TRACE/HTRF technique and the percentage inhibition is calculated according to the 665/620 ratios.
# MKN45 cells = assay: Test D: cellular proliferation by 14C-thymidine pulse, MKN45 cells; type: cell-based; conditions: cell line not stated (HCT116 or MKN45)
# Procedure, shortened: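 MKN45 cells (7500/well, RPMI + 10% foetal calf serum) treated with 10 concentrations, 10000 to 0.3 nM in 3-fold steps, duplicate. 14C-thymidine (0.1 μCi/well) added at 72 h; incorporation counted after 24 h pulse, 96 h total treatment.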
# [1] = Homo sapiens, MKN-45, cellular proliferation by 14C-thymidine pulse
# T1 sequence (P08581 25-1390): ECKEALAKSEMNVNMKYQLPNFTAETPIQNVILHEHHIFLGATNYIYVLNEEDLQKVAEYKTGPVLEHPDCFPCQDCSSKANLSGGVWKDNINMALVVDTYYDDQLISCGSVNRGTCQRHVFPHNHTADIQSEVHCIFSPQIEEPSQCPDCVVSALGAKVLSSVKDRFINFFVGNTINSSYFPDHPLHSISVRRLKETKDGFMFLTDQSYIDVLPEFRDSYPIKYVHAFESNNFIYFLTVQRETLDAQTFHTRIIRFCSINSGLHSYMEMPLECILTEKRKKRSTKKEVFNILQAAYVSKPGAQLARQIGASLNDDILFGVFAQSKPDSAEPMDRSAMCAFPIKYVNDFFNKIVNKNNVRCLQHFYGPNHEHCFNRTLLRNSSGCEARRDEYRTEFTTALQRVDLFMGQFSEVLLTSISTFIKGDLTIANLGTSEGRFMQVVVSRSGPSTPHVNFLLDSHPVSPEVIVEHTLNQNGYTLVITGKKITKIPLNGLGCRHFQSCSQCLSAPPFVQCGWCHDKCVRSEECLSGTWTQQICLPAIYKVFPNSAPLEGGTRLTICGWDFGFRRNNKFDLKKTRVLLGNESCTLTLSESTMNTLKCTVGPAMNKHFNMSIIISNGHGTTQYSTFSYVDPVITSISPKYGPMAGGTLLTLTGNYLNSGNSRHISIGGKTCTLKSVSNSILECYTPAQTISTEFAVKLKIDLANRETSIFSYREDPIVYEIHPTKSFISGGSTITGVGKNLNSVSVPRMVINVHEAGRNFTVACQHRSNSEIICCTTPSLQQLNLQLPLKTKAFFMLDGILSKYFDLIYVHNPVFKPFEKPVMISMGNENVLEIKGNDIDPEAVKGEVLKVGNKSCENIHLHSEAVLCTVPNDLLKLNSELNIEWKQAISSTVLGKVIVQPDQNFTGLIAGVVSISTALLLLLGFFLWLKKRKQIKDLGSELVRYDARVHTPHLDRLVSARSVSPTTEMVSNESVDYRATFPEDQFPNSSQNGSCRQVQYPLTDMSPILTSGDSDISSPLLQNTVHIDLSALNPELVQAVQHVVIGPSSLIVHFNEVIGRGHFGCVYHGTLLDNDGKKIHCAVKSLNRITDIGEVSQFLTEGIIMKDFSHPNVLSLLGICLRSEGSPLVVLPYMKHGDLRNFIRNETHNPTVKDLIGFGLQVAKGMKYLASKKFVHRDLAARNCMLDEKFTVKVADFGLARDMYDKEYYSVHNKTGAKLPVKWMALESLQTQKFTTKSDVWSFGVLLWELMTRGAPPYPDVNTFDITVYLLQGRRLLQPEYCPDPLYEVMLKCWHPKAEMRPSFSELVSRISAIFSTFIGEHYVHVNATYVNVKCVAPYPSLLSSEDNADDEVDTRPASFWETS
IC50 (MET) [nM],IC50 (RON) [nM],IC50 (MKN45 cells; [1]) [nM],IC50 (MKN45 cells; cellular proliferation by 14C-thymidine pulse) [nM],SMILES
< 500,< 500,< 500,–,"CC(Oc1ccc2nc(NC(=O)NCCN3CCCC3)sc2c1)c1c(F)ccc(Cl)c1Cl (stereo not drawn) [Example 120, 1-{6-[1-(2,3-dichloro-6-fluorophenyl)ethoxy]-1,3-benzothiazol-2-yl}-3-[2-(pyrrolidin-1-yl)ethyl]urea]"
< 500,< 500,< 500,–,"CC(Oc1ccc2nc(NC(=O)NCCN3CCN(C)CC3)sc2c1)c1c(Cl)ccc(F)c1Cl (stereo not drawn) [Example 55, 1-{6-[1-(2,6-dichloro-3-fluorophenyl)ethoxy]-1,3-benzothiazol-2-yl}-3-[2-(4-methylpiperazin-1-yl)ethyl]urea]"
500 to 10000,500 to 10000,500 to 10000,–,"CC(Oc1ccc2nc(NC(=O)NCCN3CCOCC3)[nH]c2c1)c1cc(F)ccc1Cl (stereo not drawn) [Example 3, 1-{6-[1-(2-chloro-5-fluorophenyl)ethoxy]-1H-benzimidazol-2-yl}-3-(2-morpholin-4-ylethyl)urea]"
< 500,< 500,> 10000,–,"CC(Oc1ccc2nc(NC(=O)NCCCN3CCCCCC3)sc2c1)c1c(Cl)ccc(F)c1Cl (stereo not drawn) [Example 48, 1-(3-azepan-1-ylpropyl)-3-{6-[1-(2,6-dichloro-3-fluorophenyl)ethoxy]-1,3-benzothiazol-2-yl}urea]"
< 500,< 500,500 to 10000,–,"CC(Oc1cc2sc(NC(=O)NCCN3CCOCC3)nc2cc1F)c1c(Cl)cccc1Cl (stereo not drawn) [Example 29, 1-{6-[1-(2,6-dichlorophenyl)ethoxy]-5-fluoro-1,3-benzothiazol-2-yl}-3-(2-morpholin-4-ylethyl)urea]"
500 to 10000,500 to 10000,> 10000,–,"CC(Oc1ccc2nc(NC(=O)NCCN3CCOCC3)sc2c1)c1c(F)ccc(F)c1F (stereo not drawn) [Example 60, 1-(2-morpholin-4-ylethyl)-3-{6-[1-(2,3,6-trifluorophenyl)ethoxy]-1,3-benzothiazol-2-yl}urea]"
< 500,500 to 10000,500 to 10000,–,"CC(Oc1cc2sc(NC(=O)CN3CCNCC3)nc2cc1F)c1c(Cl)ccc(F)c1Cl (stereo not drawn) [Example 69, N-{6-[1-(2,6-dichloro-3-fluorophenyl)ethoxy]-5-fluoro-1,3-benzothiazol-2-yl}-2-(piperazin-1-yl)acetamide]"
< 500,< 500,500 to 10000,–,"CC(Oc1cc2sc(NC(=O)NCCCO)nc2cc1F)c1c(Cl)ccc(F)c1Cl (stereo not drawn) [Example 105, 1-{6-[1-(2,6-dichloro-3-fluorophenyl)ethoxy]-5-fluoro-1,3-benzothiazol-2-yl}-3-(3-hydroxypropyl)urea]"
500 to 10000,500 to 10000,> 10000,–,"CC(Oc1ccc2nc(NC(=O)NCCCN3CCC(Cc4ccccc4)CC3)sc2c1)c1c(Cl)ccc(F)c1Cl (stereo not drawn) [Example 41, 1-[3-(4-benzylpiperidin-1-yl)propyl]-3-{6-[1-(2,6-dichloro-3-fluorophenyl)ethoxy]-1,3-benzothiazol-2-yl}urea]"
500 to 10000,500 to 10000,500 to 10000,–,"O=C(NCCN1CCOCC1)Nc1nc2cc(F)c(OCc3c(Cl)cccc3Cl)cc2s1 [Example 21, 1-{6-[(2,6-dichlorobenzyl)oxy]-5-fluoro-1,3-benzothiazol-2-yl}-3-(2-morpholin-4-ylethyl)urea]"
500 to 10000,500 to 10000,–,500 to 10000,"CCN1CCN(CCNC(=O)Nc2nc3cc(F)c(OC(C)c4c(Cl)ccc(F)c4Cl)cc3s2)CC1 (single isomer, unassigned) [Example 102, 1-{6-[(1S*)-1-(2,6-dichloro-3-fluorophenyl)ethoxy]-5-fluoro-1,3-benzothiazol-2-yl}-3-[2-(4-ethylpiperazin-1-yl)ethyl]urea]"
500 to 10000,500 to 10000,500 to 10000,–,"CC(Oc1cc2sc(NC(=O)NCCN3CCCC3)nc2cc1F)c1c(Cl)ccc(Cl)c1Cl (stereo not drawn) [Example 126, 1-{5-fluoro-6-[1-(2,3,6-trichlorophenyl)ethoxy]-1,3-benzothiazol-2-yl}-3-[2-(pyrrolidin-1-yl)ethyl]urea]"
500 to 10000,< 500,500 to 10000,–,"CC(Oc1ccc2nc(NC(=O)NCCN3CCOCC3)sc2c1)c1c(Cl)cccc1Cl (stereo not drawn) [Example 17, 1-{6-[1-(2,6-dichlorophenyl)ethoxy]-1,3-benzothiazol-2-yl}-3-(2-morpholin-4-ylethyl)urea]"
< 500,< 500,500 to 10000,–,"CC(Oc1cc2sc(NC(=O)NCCN3CCCC3)nc2cc1F)c1c(F)ccc(Cl)c1Cl (stereo not drawn) [Example 118, 1-{6-[1-(2,3-dichloro-6-fluorophenyl)ethoxy]-5-fluoro-1,3-benzothiazol-2-yl}-3-[2-(pyrrolidin-1-yl)ethyl]urea]"
< 500,500 to 10000,500 to 10000,–,"CC(Oc1ccc2nc(NC(=O)NCCCN3CCOCC3)sc2c1)c1c(Cl)ccc(F)c1Cl (stereo not drawn) [Example 42, 1-{6-[1-(2,6-dichloro-3-fluorophenyl)ethoxy]-1,3-benzothiazol-2-yl}-3-(3-morpholin-4-ylpropyl)urea]"
< 500,500 to 10000,500 to 10000,–,"CC(Oc1cc2sc(NC(=O)NCC(=O)N3CCN(C)CC3)nc2cc1F)c1c(Cl)ccc(F)c1Cl (stereo not drawn) [Example 129, 1-{6-[1-(2,6-dichloro-3-fluorophenyl)ethoxy]-5-fluoro-1,3-benzothiazol-2-yl}-3-[2-(4-methylpiperazin-1-yl)-2-oxoethyl]urea]"
< 500,500 to 10000,500 to 10000,–,"CC(Oc1cc2sc(NC(=O)CCCN3CCCC3)nc2cc1F)c1c(Cl)ccc(F)c1Cl (stereo not drawn) [Example 68, N-{6-[1-(2,6-dichloro-3-fluorophenyl)ethoxy]-5-fluoro-1,3-benzothiazol-2-yl}-4-(pyrrolidin-1-yl)butanamide]"
500 to 10000,500 to 10000,500 to 10000,–,"CC(Oc1cc2sc(NC(=O)NCCN3CCOCC3)nc2cc1F)c1c(F)ccc(Cl)c1Cl (stereo not drawn) [Example 111, 1-{6-[1-(2,3-dichloro-6-fluorophenyl)ethoxy]-5-fluoro-1,3-benzothiazol-2-yl}-3-[2-(morpholin-4-yl)ethyl]urea]"
< 500,< 500,< 500,–,"CC(Oc1ccc2nc(NC(=O)NCCN3CCOCC3)sc2c1)c1c(F)ccc(Cl)c1Cl (stereo not drawn) [Example 61, 1-{6-[1-(2,3-dichloro-6-fluorophenyl)ethoxy]-1,3-benzothiazol-2-yl}-3-(2-morpholin-4-ylethyl)urea]"
< 500,500 to 10000,500 to 10000,–,"CC(Oc1ccc2nc(NC(=O)NCCN3CCCCCC3)sc2c1)c1c(Cl)ccc(F)c1Cl (stereo not drawn) [Example 54, 1-(2-azepan-1-ylethyl)-3-{6-[1-(2,6-dichloro-3-fluorophenyl)ethoxy]-1,3-benzothiazol-2-yl}urea]"
500 to 10000,500 to 10000,> 10000,–,"CC(Oc1ccc2nc(NC(=O)NCc3ccncc3)sc2c1)c1c(Cl)ccc(F)c1Cl (stereo not drawn) [Example 57, 1-{6-[1-(2,6-dichloro-3-fluorophenyl)ethoxy]-1,3-benzothiazol-2-yl}-3-(pyridin-4-ylmethyl)urea]"
